Test results from patent US8003096B2, “Means and methods for the recruitment and identification of stem cells” (Vlaams Interuniversitair Instituut voor Biotechnologie VZW, priority 2003, dated 2011).

Assays:
[1] = type: in vivo, mouse
Procedure: To study the role of the plasminogen proteinase system with its plasminogen activators tPA and uPA, and active plasmin in stem/progenitor cell mobilization, mice lacking plasminogen (Plg^−/−), tPA (tPA^−/−), uPA (uPA^−/−) and both activators (tPA^−/−uPA^−/−) were used.^(17, 18) Age- and sex-matched mice were kept in IVC cages. Mobilization was induced either via a single sublethal injection i.v. of the myeloablative agent 5-fluorouracil (5-FU, 200-250 mg/kg), or via administration s.c. of recombinant human G-CSF (Filgrastim, Amgen, 200 μg/kg/d) for five consecutive days.^(12) Peripheral blood (PB) samples were obtained by retro-orbital bleeding under light anesthesia. Full blood counts were determined on the Abbott Cell Dyn 1300 hemocytometer. The number of mobilized hematopoietic progenitor cells (HPCs) in the circulation was determined via methylcellulose-based CFU-C assays (MethoCult, Stem Cell Technologies), per 10^5 peripheral blood mononuclear cells (PB MNCs).^(12) The number of mobilized hematopoietic stem cells (HSCs) in the circulation was quantified via splenic colony-forming assays (CFU-S), and evaluated for long-term engraftment via transplantation into lethally irradiated syngeneic wild-type recipients (9.5 Gy total body irradiation). […]
Wild-type mice and mice lacking Plg, both tPA and uPA, tPA, uPA, uPAR, PAI-1, α2AP, MMP-2 (kind gift from S. Itohara), MMP-3 (kind gift from J. Mudgett), MMP-9, MMP-12 (kind gift from S. Shapiro), and TIMP-1 (obtained by courtesy of P. Soloway) were used, and housed in barrier cages (individually ventilated) (Heymans et al. (1999), Nat. Med. 5:1135-42). […] Peripheral blood was repetitively sampled by retro-orbital puncture under light anesthesia, and full blood counts (EDTA buffered) were determined on a hemocytometer (Abbott Cell Dyn 1300). Peripheral blood smears were stained using Giemsa-May-Grunwald and at least 200 cells were analyzed. […]

[2] = tested on: BM cells; assay: FACS analysis of BM cells after 5-FU; type: in vivo, mouse; settings: for Sca-1+ progenitors in S-phase of the cell cycle: 5-FU treatment; for CD3ε+ lymphoid cell counts / Gr1+CD11b+ myeloid cell counts: day 7 after 5-FU; for BM HSCs (Sca-1+cKit+ cells) / HPCs (Sca-1+ cells): seven days after 5-FU
Source text: Murine BM cells were filtered through a 40 μm nylon mesh (Falcon) and stained with labeled anti-mouse antibodies against CD11b, Gr-1, CD3ε, CD19, Sca-1, α5β1, (BD Biosciences), cKit (eBioscience). Anti-mouse α4β1, antibodies were generated from hybridoma (PS/2; ATCC), and detected using a secondary labeled anti-rat antibody (Caltag). Mouse annexin II was detected using a goat anti-annexin II antibody (Santa Cruz), and a secondary labeled rabbit anti-goat antibody (Caltag). Mouse uPAR was detected using a rabbit anti-mouse uPAR antibody (Sier et al. (2004), Thromb. Haemost. 91:403-11), and a secondary labeled goat anti-rabbit antibody (BD Biosciences). Control stainings included matched isotype antibodies and pre-immune antibodies. Non-specific binding was prevented by addition of mouse serum (DAKO), as alternative for Fc-receptor block. For cell cycle analysis, BM cells were stained with Sca-1-FITC and treated with PI/RNAse (BD Biosciences), as previously described (Heissig et al. (2002), Cell 109:625-37). From EDTA-anti-coagulated human blood, full blood counts were performed, MNCs were prepared using Lymphoprep (Axis-Shield), counted, and 1×10^6 PB MNCs were stained with anti-human CD34 (Tebu Bio).

O=c1[nH]cc(F)c(=O)[nH]1 [5-FU, 5-fluorouracil]
mice that died ([1]; Plg−/− or tPA−/−uPA−/− mice, sublethal dose): up to 75%
mice that did not survive ([1]; WT mice, sublethal dose): 10%
time to recovery from drop in WBC, RBC and platelet counts ([1]; mouse, in vivo): 2.5-3 weeks
Sca-1+ progenitors in S-phase of the cell cycle ([2]; Plg−/− mice): 1.2±0.6 ×10^4 per femur
CD3ε+ lymphoid cell counts ([2]; Plg−/− mice): 67±31 ×104 per femur
Gr1+CD11b+ myeloid cell counts ([2]; Plg−/− mice): 3±2 ×10^4 per femur
BM HSCs (Sca-1+cKit+ cells) ([2]; Plg−/− mice): 5±1 ×10^4 per femur
HPCs (Sca-1+ cells) ([2]; Plg−/− mice): 48±22 ×10^4 per femur
Sca-1+ progenitors in S-phase of the cell cycle ([2]; WT mice): 8.4±0.8 ×10^4 per femur
CD3ε+ lymphoid cell counts ([2]; WT mice): 438±122 ×104 per femur
Gr1+CD11b+ myeloid cell counts ([2]; WT mice): 29±13 ×10^4 per femur
BM HSCs (Sca-1+cKit+ cells) ([2]; WT mice): 42±9 ×10^4 per femur
HPCs (Sca-1+ cells) ([2]; WT mice): 206±20 ×10^4 per femur
